# From patent US20250361230A1, “LATS Inhibitors and Uses Thereof” (The USA, as Represented by the Secretary, Dept. of Heath …, priority 2022, published 2025)
# Read-outs that look alike come from different tables or passages of the source.
# What was measured:
# Type in all cases: biochemical
# AKT = AKT (Homo sapiens, UniProt P31749); experiment: RBC HotSpot kinase assay (33P-ATP, P81 filter-binding), AKT; conditions: read-out: AKT IC50
# Procedure, shortened: (§1)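 Compounds were run as single 10-point titrations to give IC50 values in nM. Each kinase was mixed with substrate and cofactors in 20 mM Hepes pH 7.5 reaction buffer with 1% DMSO, then exposed to compound for 20 min. 33P-ATP was added for a 2 h room-temperature reaction, with activity measured by P81 filter binding.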
# LATS1 = target: T1, LATS1 (Homo sapiens, UniProt O95835); experiment: RBC HotSpot kinase assay (33P-ATP, P81 filter-binding), LATS1; conditions: read-out: LATS1 IC50
# T1 sequence (O95835 1-1130): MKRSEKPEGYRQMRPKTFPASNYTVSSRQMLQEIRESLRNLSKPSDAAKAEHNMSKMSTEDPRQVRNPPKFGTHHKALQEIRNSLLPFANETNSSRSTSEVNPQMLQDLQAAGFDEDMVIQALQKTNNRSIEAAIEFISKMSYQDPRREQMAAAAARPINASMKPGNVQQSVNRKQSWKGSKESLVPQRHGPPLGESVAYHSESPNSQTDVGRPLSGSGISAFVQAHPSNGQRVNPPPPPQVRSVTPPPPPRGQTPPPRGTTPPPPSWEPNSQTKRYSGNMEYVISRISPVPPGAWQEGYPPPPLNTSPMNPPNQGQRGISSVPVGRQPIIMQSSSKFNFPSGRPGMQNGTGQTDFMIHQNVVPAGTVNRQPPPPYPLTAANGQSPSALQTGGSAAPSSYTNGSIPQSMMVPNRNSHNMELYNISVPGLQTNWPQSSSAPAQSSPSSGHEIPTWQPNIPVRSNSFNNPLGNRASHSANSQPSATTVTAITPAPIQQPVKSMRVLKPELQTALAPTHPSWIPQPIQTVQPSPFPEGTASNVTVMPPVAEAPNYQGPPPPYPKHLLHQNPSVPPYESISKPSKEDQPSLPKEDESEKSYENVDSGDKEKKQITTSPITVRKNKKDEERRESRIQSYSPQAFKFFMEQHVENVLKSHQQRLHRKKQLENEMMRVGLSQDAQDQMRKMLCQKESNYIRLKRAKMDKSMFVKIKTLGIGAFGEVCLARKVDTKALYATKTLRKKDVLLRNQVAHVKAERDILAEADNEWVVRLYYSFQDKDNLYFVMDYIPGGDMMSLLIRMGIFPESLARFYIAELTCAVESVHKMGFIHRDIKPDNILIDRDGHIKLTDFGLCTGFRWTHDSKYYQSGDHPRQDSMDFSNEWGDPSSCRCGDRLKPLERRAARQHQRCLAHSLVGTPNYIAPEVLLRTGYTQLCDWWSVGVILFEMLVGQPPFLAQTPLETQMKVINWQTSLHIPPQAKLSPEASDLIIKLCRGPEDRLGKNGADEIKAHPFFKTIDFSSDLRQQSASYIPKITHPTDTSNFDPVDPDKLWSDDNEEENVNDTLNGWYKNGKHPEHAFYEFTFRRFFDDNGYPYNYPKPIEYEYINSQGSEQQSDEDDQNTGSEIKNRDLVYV
# Procedure, shortened: as §1
# LATS2 = target: T2, LATS2 (Homo sapiens, UniProt Q9NRM7); experiment: RBC HotSpot kinase assay (33P-ATP, P81 filter-binding), LATS2; conditions: read-out: LATS2 IC50
# T2 sequence (Q9NRM7 1-1088): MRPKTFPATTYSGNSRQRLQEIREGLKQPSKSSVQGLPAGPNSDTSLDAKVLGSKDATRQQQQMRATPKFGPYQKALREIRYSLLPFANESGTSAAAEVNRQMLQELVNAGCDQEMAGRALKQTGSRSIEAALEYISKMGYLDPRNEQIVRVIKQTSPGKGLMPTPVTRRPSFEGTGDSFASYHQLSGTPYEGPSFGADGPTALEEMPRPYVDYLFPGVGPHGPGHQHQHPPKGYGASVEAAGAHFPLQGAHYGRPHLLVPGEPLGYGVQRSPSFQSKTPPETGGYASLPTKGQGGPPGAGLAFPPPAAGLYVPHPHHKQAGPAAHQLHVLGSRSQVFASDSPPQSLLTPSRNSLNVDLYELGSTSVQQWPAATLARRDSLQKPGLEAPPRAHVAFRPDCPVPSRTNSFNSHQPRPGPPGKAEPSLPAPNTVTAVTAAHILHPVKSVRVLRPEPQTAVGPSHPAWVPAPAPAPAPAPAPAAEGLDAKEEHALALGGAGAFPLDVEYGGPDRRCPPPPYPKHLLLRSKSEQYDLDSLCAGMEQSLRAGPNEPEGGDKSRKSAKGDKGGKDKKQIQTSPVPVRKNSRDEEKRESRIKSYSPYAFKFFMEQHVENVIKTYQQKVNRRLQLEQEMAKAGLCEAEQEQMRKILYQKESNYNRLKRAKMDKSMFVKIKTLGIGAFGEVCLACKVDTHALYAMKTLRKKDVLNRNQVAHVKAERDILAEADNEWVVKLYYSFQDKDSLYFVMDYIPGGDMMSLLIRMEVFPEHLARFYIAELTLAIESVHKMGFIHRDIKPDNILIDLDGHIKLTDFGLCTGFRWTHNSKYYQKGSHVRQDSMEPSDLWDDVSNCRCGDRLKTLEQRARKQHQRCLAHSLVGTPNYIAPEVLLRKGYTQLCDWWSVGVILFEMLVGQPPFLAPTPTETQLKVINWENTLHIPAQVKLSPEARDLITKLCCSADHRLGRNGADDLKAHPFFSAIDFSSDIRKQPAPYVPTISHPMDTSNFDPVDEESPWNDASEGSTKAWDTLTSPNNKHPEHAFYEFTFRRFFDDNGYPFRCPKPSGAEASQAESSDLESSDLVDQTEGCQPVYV
# Procedure, shortened: as §1
# [1] = Table 28, biochemical kinase assay
# [2] = Table 32, biochemical kinase assay
# Chain of AKT (P31749 whole entry): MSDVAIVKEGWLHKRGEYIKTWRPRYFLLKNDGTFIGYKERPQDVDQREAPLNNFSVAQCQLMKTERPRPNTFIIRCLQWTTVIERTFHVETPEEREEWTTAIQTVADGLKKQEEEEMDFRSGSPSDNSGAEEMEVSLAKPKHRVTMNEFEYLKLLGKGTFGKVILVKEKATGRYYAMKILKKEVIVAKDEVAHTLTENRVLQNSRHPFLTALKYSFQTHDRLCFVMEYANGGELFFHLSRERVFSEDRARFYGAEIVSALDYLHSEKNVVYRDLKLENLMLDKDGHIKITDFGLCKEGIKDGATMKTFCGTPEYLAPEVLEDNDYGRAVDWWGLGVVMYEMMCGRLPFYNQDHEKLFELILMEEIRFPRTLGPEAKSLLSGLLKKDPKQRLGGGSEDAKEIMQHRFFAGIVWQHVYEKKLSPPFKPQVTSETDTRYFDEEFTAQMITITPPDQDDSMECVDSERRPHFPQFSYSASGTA
Compound,IC50 (AKT; [1]) [nM],IC50 (LATS1; [1]) [nM],IC50 (LATS2; [1]) [nM],IC50 (AKT; [2]) [nM],IC50 (LATS1; [2]) [nM],IC50 (LATS2; [2]) [nM]
"Cc1cncc(-c2c[nH]c3nccc(-c4ccc(C5(O)CCNCC5)cc4)c23)c1 [Compound 127, 4-(4-(3-(5-methylpyridin-3-yl)-1H-pyrrolo[2,3-b]pyridin-4-yl)phenyl)piperidin-4-ol]",4300,19,40,,,
"COC(=O)c1c[nH]c2nccc(-c3ccc(C4(O)CCNCC4)c(Cl)c3)c12 [Compound 101, methyl 4-(3-chloro-4-(4-hydroxypiperidin-4-yl)phenyl)-1H-pyrrolo[2,3-b]pyridine-3-carboxylate]",1950,7.1,70.8,,,
"CC(C)(C)OC(=O)N1CCC(c2ccc(-c3ccnc4[nH]cc(F)c34)cc2Cl)CC1 [Compound 170, tert-butyl 4-(2-chloro-4-(3-fluoro-1H-pyrrolo[2,3-b]pyridin-4-yl)phenyl)piperidine-1-carboxylate]",> 10000,> 10000,> 10000,,,
"C[C@@H]1CN(C(=O)[C@H]2CCCN2)C[C@H](C)[C@@]1(O)c1c(F)cc(-c2ccnc3[nH]cc(F)c23)cc1F [Compound 59, 4-(4-((3S,4R,5R)-1-(L-prolyl)-4-hydroxy-3,5-dimethylpiperidin-4-yl)-3,5-difluorophenyl)-3-fluoro-1H-pyrrolo[2,3-b]pyridine]",1470,21.6,10.3,,,
"COc1cc(-c2ccnc3[nH]ccc23)ccc1CN [Compound 268, (2-methoxy-4-(1H-pyrrolo[2,3-b]pyridin-4-yl)phenyl) methanamine]",618,24,24,,,
"O=C(CO)NCC(O)(c1ccc(Cl)cc1)c1ccc(-c2ccnc3[nH]cc(Cl)c23)cc1 (stereo not drawn) [Compound 1017, N-(2-(4-(3-chloro-1H-pyrrolo[2,3-b]pyridin-4-y1)phenyl)-2-(4-chlorophenyl)-2-hydroxyethyl)-2-hydroxyacetamide]",,,,2.8,5.4,2.8
"CN[C@@H](C)C(=O)N1C[C@@H](C)[C@](O)(c2c(C)cc(-c3ccnc4[nH]cc(F)c34)cc2F)[C@@H](C)C1 [Compound 315, (S)-1-((3S,4R,5R)-4-(2-fluoro-4-(3-fluoro-1H-pyrrolo[2,3-b]pyridin-4-yl)-6-methylphenyl)-4-hydroxy-3,5-dimethylpiperidin-1-yl)-2-(methylamino) propan-1-one]",1350,11.6,5.7,,,
"Cc1c[nH]c2nccc(-c3ccc(CN)cc3)c12 [Compound 257, (4-(3-methyl-1H-pyrrolo[2,3-b]pyridin-4-yl)phenyl) methanamine]",625,13,12,,,
"Cc1nc(-c2ccnc3[nH]ccc23)ccc1C1(O)CCN(C)CC1 [Compound 135, 1-methyl-4-(2-methyl-6-(1H-pyrrolo[2,3-b]pyridin-4-yl)pyridin-3-yl)piperidin-4-ol]",7960,736,682,,,
"CC(C)c1c[nH]c2nccc(-c3ccc(CN)c(-c4ccccc4)c3)c12 [Compound 220, (5-(3-isopropyl-1H-pyrrolo[2,3-b]pyridin-4-yl)-[1,1′-biphenyl]-2-yl)methanamine]",1010,236,115,,,
"CN(C)CCS(=O)(=O)N1CCC(c2ccc(-c3ccnc4[nH]cc(F)c34)cc2Cl)CC1 [Compound 159, 2-((4-(2-chloro-4-(3-fluoro-1H-pyrrolo[2,3-b]pyridin-4-yl)phenyl)piperidin-1-yl)sulfonyl)-N,N-dimethylethan-1-amine]",8520,174,139,,,
"Cc1nc(-c2ccnc3[nH]cc(F)c23)ccc1[C@@]1(O)[C@H](C)CNC[C@@H]1C [Compound 10, (3S,4s,5R)-4-(6-(3-fluoro-1H-pyrrolo[2,3-b]pyridin-4-yl)-2-methylpyridin-3-yl)-3,5-dimethylpiperidin-4-ol]",1720,23.7,20.3,,,
"COCCN1CCC(c2ccc(-c3ccnc4[nH]cc(F)c34)cc2Cl)CC1 [Compound 158, 4-(3-chloro-4-(1-(2-methoxyethyl)piperidin-4-yl)phenyl)-3-fluoro-1H-pyrrolo[2,3-b]pyridine]",1150,29,56,,,
"NCc1ccc(-c2ccnc3[nH]ccc23)c(C(F)(F)F)c1 [Compound 286, (4-(1H-pyrrolo[2,3-b]pyridin-4-yl)-3-(trifluoromethyl)phenyl) methanamine]",3410,5050,1260,,,
"CC(=O)N1CCC(c2ccc(-c3ccnc4[nH]cc(F)c34)cc2Cl)CC1 [Compound 171, 1-(4-(2-chloro-4-(3-fluoro-1H-pyrrolo[2,3-b]pyridin-4-yl)phenyl)piperidin-1-yl)ethan-1-one]",5400,69,100,,,
"NCc1ccc(-c2ccnc3[nH]ccc23)cc1Cl [Compound 283, (2-chloro-4-(1H-pyrrolo[2,3-b]pyridin-4-yl)phenyl) methanamine]",732,8,20,,,
"C[C@@H]1CN(C(=O)CN)C[C@H](C)[C@@]1(O)c1ccc(-c2ccnc3[nH]cc(F)c23)cc1Cl [Compound 75, 2-amino-1-((3R,4s,S5S)-4-(2-chloro-4-(3-fluoro-1H-pyrrolo[2,3-b]pyridin-4-yl)phenyl)-4-hydroxy-3,5-dimethylpiperid-1-yl)ethan-1-one]",140,19.9,5,,,
"CCC(CC)Nc1cc(-c2ccnc3[nH]ccc23)ccc1CN [Compound 235, 2-(aminomethyl)-N-(pentan-3-yl)-5-(1H-pyrrolo[2,3-b]pyridin-4-yl)aniline]",788,412,371,,,
"NCc1ccc(-c2ccnc3[nH]cc(-c4cccc(C(F)(F)F)c4)c23)cc1 [Compound 227, (4-(3-(3-(trifluoromethyl)phenyl)-1H-pyrrolo[2,3-b]pyridin-4-yl)phenyl) methanamine]",3670,124,49.3,,,
"Cc1cc(-c2ccnc3[nH]cc(F)c23)ncc1CN [Compound 215, (6-(3-fluoro-1H-pyrrolo[2,3-b]pyridin-4-yl)-4-methylpyridin-3-yl)methanamine]",2840,4.7,15,,,
